These are literature values, as cited in patent US20050026911A1, “Benzotriazapinone salts and methods for using same” (priority 2003, published 2005).

In this series the target is T1, CCK2 receptor (Rattus norvegicus, UniProt P30553).
T1 construct: host or cells: rat cortical membranes
T1 sequence (P30553 1-452): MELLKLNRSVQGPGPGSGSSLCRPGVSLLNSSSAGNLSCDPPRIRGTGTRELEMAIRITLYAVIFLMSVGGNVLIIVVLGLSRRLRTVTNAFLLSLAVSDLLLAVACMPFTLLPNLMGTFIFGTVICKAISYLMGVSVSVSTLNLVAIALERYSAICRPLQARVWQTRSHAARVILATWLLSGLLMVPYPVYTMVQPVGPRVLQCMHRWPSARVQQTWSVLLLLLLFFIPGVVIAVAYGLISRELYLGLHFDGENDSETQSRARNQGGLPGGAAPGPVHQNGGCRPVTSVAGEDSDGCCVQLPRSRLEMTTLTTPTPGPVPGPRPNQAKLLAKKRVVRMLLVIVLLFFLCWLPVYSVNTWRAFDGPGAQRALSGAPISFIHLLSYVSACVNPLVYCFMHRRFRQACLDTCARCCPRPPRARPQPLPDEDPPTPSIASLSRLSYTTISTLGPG
Particulars: rat cortical membranes; Nishida et al. 1994; cited from earlier work.

`CNc1cccc(NC(=O)N[C@@H]2N=C(c3ccccn3)c3ccccc3N(CC(=O)C(C)(C)C)C2=O)c1` [YF476]: the “affinity pKi for the CCK2 receptor” value is 10.17+0.03.
